Data taken from patent publication US6956033B2, “3,4-dihydroisoquinoline derivative compound and a pharmaceutical agent comprising it as active ingredient” (Ono Pharmaceutical Co., Ltd., priority 2000, dated 2005).

Biological target: T1, Human CB2 receptors (Homo sapiens, UniProt P34972)
T1 construct: expressed in transfected cells; host or cells: CHO cells
Assay: In vitro signaling assay: inhibition of forskolin-induced cAMP production in human CB2 receptor expressing CHO cells
Assay type: cell-based
Settings: inhibition of 10 μM forskolin-induced cAMP production, human CB2 receptors expressed CHO cells, cAMP EIA
Description: It was confirmed by the following experiment that the compound of formula (I) of the present invention has CB2 receptor agonist activity.
Method for the Experiment:
Human CB2 receptors expressed CHO cells were used for the assays. Cells were dispersed seeded in 96-well plates in a density of 5×10^4 cells/well, and were subjected to experiment the next day. After removing the culture media 1 mM isobutylmethylxanthine (IBMX) solution was added, and cells were incubated for 10 minutes at room temperature. Next, a mixture of 10 μM forskolin and the compound of the present invention was added. After additional incubation for 15 minutes at room temperature, the culture supernatant was discarded and 200 μl of lysis reagent (attached to a cAMP EIA) was added. The amounts of cAMP of the lysate were determined by a cAMP EIA kit (Amersham) under conditions of the forskolin-induced cAMP production. The compound of the present invention was dissolved in DMSO and the solution was diluted to adjust the final concentration of DMSO to 0.1%. IC50 values were calculated from the inhibitory ratio of the compound of the present invention toward the amount of the forskolin-induced cAMP production. By the same experiment using CHO cells, it was confirmed that this inhibitory effect toward cAMP production by the compound was mediated via the human CB2 receptors.

T1 sequence (P34972 whole entry): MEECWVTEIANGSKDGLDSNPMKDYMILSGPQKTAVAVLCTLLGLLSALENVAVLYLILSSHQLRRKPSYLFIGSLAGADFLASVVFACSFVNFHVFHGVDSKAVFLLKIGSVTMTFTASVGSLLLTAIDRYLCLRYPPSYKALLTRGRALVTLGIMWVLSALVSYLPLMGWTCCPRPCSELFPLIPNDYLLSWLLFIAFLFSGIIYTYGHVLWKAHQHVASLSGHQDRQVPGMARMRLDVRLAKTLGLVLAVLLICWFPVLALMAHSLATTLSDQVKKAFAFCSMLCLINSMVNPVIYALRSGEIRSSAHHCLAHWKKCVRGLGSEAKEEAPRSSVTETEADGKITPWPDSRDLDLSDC

Row | SMILES | IC50 [nM]
1 | CC1(C)Cc2ccccc2/C(=C/C(=O)C2CCCCC2)N1 [compound 1] | 2.4
2 | CC1(C)Cc2ccccc2/C(=C/C(=O)C2CCCCCC2)N1 [1(11), (Z)-2-(3,3-dimethyl-3,4-dihydro-(2H)-isoquinolin-1-ylidene)-1-cycloheptylethan-1-one] | 0.4
3 | O=C(/C=C1\NC2(CCOCC2)Cc2ccccc21)c1ccccc1 [1(33), (Z)-2-(spiro[3,4-dihydro-(2H)-isoquinolin-3,4′-3,4,5,6-tetrahydropyran]-1-ylidene)-1-phenylethan-1-one] | 0.8
